Active and inactive are the calls of the source. The rule behind the calls is not given here.
How the values were obtained:
[1] = (§1) Inhibition of TNFalpha-induced NF-kappa-B transcriptional activity in human K562 cells pretreated with compound for 2 hrs measured 6 hrs post TNFalpha challenge by luciferase reporter gene assay; format: cell-based
K562 [2] = experiment: as §1; format: cell-based
K562 [3] = experiment: Cytotoxicity against human K562 cells after 24 hrs by trypan blue exclusion test; format: functional, cell-based; settings: K562, 24 h
K562 [4] = experiment: Cytotoxicity against human K562 cells after 48 hrs by trypan blue exclusion test; format: functional, cell-based; settings: K562, 48 h
K562 [5] = experiment: Cytotoxicity against human K562 cells at 0.5 to 100 uM after 8 to 72 hrs by trypan blue exclusion test; format: functional, cell-based
PBMC [6] = experiment: Effect on metabolism of human PBMCs after 24 hrs by CellTiter-Glo luminescent cell viability assay; format: functional, cell-based
K562 [7] = experiment: Antiproliferative activity against human K562 cells measured at 6 hrs over 120 hrs by videomicroscopy analysis; format: functional, cell-based
K562 [8] = experiment: Induction of apoptosis in human K562 cells assessed as cleavage of caspase-9 after 16 to 24 hrs by Western blot analysis; format: functional, cell-based
K562 [9] = experiment: Cell cycle arrest in human K562 cells assessed as accumulation at sub-G1 phase at 4 uM after 48 hrs by flow cytometry relative to untreated control; format: functional
A549 [10] = experiment: Antiproliferative activity against human A549 cells measured at 6 hrs over 120 hrs by videomicroscopy analysis; format: functional, cell-based
K562 [11] = experiment: Induction of apoptosis in human K562 cells assessed as reduction in Bcl-xL expression after 16 to 72 hrs by Western blot analysis; format: functional, cell-based
A549 [12] = experiment: Cytotoxicity against human A549 cells after 24 hrs by XTT assay; format: functional, cell-based; settings: A549, 24 h
K562 [13] = experiment: Cell cycle arrest in human K562 cells assessed as accumulation at sub-G1 phase after 24 hrs by flow cytometry relative to untreated control; format: functional
K562 [14] = experiment: Cell cycle arrest in human K562 cells assessed as accumulation at sub-G1 phase at 0.2 to 10 uM by flow cytometry; format: functional, cell-based; settings: TDE = time-dependent effect
K562 [15] = experiment: Induction of apoptosis in human K562 cells after 16 to 72 hrs using annexin V-propidium iodide staining by FACS analysis; format: functional, cell-based
PBMC [16] = experiment: Cytotoxicity against human PBMCs after 24 hrs by trypan blue exclusion test; format: cell-based
K562 [17] = experiment: Cell cycle arrest in human K562 cells assessed as accumulation at sub-G1 phase after 16 hrs by flow cytometry relative to untreated control; format: functional
A549 [18] = experiment: Antimigratory activity against human A549 cells treated at 25 uM after scratching measured at 6 hrs interval over 120 hrs by scratch-wound assay; format: functional, cell-based
K562 [19] = experiment: Induction of apoptosis in human K562 cells assessed as cleavage of caspase-3 after 16 to 24 hrs by Western blot analysis; format: functional, cell-based
K562 [20] = experiment: Cell cycle arrest in human K562 cells assessed as accumulation at sub-G1 phase at 4 uM after 72 hrs by flow cytometry relative to untreated control; format: functional
K562 [21] = experiment: Induction of apoptosis in human K562 cells assessed as reduction in Mcl-1 expression after 16 to 72 hrs by Western blot analysis; format: functional, cell-based
K562 [22] = experiment: Cell cycle arrest in human K562 cells assessed as accumulation at sub-G1 phase after 16 to 72 hrs by flow cytometry; format: functional, cell-based
K562 [23] = experiment: Induction of apoptosis in human K562 cells assessed as reduction in XIAP expression after 16 to 72 hrs by Western blot analysis; format: functional, cell-based
K562 [24] = experiment: Inhibition of TNFalpha-induced NF-kappa-B transcriptional activity in human K562 cells pretreated with compound at 100 uM for 2 hrs measured 6 hrs post TNFalpha challenge by luciferase reporter gene assay; format: cell-based
K562 [25] = experiment: Cytotoxicity against human K562 cells at 100 uM after 24 hrs by trypan blue exclusion test; format: functional, cell-based

## COc1cc(OC(C)=O)c2c(c1)C(=O)C1=C(C2=O)[C@H](OC(C)=O)[C@@H](OC(C)=O)[C@@](C)(O)[C@@H]1OC(C)=O
[1]
  IC50: 4.64 µM
K562 [2]
  inhibition: Dose-dependent effect
K562 [3]
  EC50: 4 µM
K562 [4]
  EC50: 2.5 µM
K562 [5]
  Activity: Active

## COc1cc(O)c2c(c1)C(=O)C1=C(C2=O)[C@H](O)[C@@H](O)[C@@](C)(O)[C@@H]1O [ALTERSOLANOL A]
PBMC [6]
  EC50: 4.2 µM
[1]
  IC50: 0.8 µM
K562 [2]
  inhibition: Dose-dependent effect
K562 [3]
  EC50: 4 µM
K562 [7]
  EC50: > 1 µM
K562 [8]
  Activity: Dose-dependent effect
K562 [9]
  Activity: 65%
A549 [10]
  EC50: > 2 µM
K562 [4]
  EC50: 2.5 µM
K562 [11]
  Activity: Dose-dependent effect
A549 [12]
  EC50: 29.5 µM
K562 [13]
  Activity: 40%
K562 [14]
  Activity: tde
K562 [15]
  Activity: Dose-dependent effect
PBMC [16]
  Activity: Non-toxic
K562 [17]
  Activity: 40%
A549 [18]
  Activity: Active
K562 [5]
  Activity: Active
K562 [19]
  Activity: Dose-dependent effect
K562 [20]
  Activity: 65%
K562 [21]
  Activity: Dose-dependent effect
K562 [22]
  Activity: Dose-dependent effect
K562 [23]
  Activity: Dose-dependent effect

## COc1cc(O)c2c(c1)[C@H](O)[C@H]1C[C@](C)(O)[C@H](O)C[C@@H]1C2=O
K562 [24]
  inhibition: inactive
K562 [25]
  Activity: inactive

## COc1cc(O)c2c(c1)[C@H](O)[C@@H]1[C@@H](C2=O)[C@H](O)[C@@H](O)[C@@](C)(O)[C@@H]1O
K562 [24]
  inhibition: inactive
K562 [25]
  Activity: inactive
